Experimental data from publication PMC4979471 (Cell Death Discovery, 2015).
Where two headings read alike, the source gives them in different places.

What was measured:
Assay in all cases: Kinase selectivity, P33-radiolabeled assay
Assay type in all cases: biochemical
Conditions in all cases: 10 μM ATP
[1] = target: T1, BRSK2 (Homo sapiens, UniProt Q8IWQ3)
T1 construct: purchased Reaction Biology Corp
T1 sequence (Q8IWQ3 1-736): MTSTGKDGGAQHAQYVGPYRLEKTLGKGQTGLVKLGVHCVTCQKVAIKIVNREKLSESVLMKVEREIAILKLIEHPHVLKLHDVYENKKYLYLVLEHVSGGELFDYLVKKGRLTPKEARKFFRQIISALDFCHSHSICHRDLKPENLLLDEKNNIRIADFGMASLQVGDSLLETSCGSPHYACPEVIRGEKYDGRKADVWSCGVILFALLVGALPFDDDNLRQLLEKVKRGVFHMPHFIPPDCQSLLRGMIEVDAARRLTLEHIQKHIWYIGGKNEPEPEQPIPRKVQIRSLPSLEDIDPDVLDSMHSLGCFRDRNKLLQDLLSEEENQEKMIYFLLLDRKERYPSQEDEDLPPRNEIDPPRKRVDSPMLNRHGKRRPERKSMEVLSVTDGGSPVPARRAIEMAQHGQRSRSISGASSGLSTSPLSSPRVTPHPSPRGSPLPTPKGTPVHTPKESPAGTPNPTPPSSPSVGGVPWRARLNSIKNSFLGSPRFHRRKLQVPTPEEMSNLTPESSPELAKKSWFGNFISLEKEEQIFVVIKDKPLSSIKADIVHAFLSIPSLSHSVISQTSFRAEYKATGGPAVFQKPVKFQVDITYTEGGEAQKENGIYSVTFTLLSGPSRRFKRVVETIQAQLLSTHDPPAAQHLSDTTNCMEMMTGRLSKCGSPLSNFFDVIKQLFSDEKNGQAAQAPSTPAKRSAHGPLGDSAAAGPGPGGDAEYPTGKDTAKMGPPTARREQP
How it was run: (§1)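 Values show % enzyme activity normalised to DMSO vehicle. They come from one 10 μM compound concentration run twice, at an ATP level of 10 μM.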

[2] = target: T2, TRKA (Homo sapiens, UniProt P04629)
T2 construct: purchased Reaction Biology Corp
T2 sequence (P04629 33-796): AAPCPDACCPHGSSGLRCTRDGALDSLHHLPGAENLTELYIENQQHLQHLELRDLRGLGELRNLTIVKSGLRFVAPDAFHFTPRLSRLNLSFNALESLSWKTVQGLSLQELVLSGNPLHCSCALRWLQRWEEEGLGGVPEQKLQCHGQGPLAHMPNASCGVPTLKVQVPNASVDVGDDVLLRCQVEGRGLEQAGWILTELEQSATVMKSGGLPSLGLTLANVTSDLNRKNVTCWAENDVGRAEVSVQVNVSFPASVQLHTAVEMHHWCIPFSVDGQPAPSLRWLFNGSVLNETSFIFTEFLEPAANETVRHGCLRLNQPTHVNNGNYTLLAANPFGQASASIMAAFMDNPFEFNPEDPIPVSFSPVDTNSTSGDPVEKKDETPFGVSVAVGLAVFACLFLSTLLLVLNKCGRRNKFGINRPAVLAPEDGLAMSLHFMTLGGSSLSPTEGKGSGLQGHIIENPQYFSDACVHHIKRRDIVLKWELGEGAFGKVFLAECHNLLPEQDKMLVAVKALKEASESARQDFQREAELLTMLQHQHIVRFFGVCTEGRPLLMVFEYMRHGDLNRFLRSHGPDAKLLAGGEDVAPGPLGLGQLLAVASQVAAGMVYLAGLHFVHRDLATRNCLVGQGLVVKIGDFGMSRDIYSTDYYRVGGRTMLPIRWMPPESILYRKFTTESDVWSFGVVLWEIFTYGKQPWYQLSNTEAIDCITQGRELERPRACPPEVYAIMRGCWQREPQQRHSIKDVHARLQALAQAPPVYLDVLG
How it was run: as §1

[3] = target: T3, ITK (Homo sapiens, UniProt Q08881)
T3 construct: purchased Reaction Biology Corp
T3 sequence (Q08881 1-620): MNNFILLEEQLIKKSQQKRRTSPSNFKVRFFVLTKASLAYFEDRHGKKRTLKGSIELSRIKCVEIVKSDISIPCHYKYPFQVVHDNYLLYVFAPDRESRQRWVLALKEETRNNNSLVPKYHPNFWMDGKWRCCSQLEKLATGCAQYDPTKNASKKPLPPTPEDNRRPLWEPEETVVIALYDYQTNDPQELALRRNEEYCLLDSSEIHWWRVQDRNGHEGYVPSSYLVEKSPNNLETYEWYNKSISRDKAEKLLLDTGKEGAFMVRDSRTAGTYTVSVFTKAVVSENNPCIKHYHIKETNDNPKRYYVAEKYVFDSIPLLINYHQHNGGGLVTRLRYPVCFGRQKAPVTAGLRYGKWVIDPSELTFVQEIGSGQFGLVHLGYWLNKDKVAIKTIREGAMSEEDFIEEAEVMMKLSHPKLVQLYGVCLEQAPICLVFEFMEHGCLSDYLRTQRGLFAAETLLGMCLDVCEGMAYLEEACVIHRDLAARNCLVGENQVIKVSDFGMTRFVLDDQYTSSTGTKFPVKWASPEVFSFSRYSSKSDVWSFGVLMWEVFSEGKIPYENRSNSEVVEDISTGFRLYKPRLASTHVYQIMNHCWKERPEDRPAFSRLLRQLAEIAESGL
How it was run: as §1

[4] = target: T4, MEK1 (Homo sapiens, UniProt Q02750)
T4 construct: purchased Reaction Biology Corp
T4 sequence (Q02750 whole entry): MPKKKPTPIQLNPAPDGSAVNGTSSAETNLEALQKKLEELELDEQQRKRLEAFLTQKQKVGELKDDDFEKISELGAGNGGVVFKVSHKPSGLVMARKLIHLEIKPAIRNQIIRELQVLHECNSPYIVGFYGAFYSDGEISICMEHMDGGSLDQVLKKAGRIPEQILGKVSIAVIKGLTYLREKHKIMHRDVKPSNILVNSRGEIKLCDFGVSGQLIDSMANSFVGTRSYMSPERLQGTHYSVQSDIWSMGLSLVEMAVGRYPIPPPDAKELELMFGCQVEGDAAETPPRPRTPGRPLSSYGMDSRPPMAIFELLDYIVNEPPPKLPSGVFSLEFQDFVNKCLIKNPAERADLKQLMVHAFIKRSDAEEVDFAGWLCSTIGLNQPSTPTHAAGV
How it was run: as §1

[5] = target: T5, MARK3 (Homo sapiens, UniProt P27448)
T5 construct: purchased Reaction Biology Corp
T5 sequence (P27448 whole entry): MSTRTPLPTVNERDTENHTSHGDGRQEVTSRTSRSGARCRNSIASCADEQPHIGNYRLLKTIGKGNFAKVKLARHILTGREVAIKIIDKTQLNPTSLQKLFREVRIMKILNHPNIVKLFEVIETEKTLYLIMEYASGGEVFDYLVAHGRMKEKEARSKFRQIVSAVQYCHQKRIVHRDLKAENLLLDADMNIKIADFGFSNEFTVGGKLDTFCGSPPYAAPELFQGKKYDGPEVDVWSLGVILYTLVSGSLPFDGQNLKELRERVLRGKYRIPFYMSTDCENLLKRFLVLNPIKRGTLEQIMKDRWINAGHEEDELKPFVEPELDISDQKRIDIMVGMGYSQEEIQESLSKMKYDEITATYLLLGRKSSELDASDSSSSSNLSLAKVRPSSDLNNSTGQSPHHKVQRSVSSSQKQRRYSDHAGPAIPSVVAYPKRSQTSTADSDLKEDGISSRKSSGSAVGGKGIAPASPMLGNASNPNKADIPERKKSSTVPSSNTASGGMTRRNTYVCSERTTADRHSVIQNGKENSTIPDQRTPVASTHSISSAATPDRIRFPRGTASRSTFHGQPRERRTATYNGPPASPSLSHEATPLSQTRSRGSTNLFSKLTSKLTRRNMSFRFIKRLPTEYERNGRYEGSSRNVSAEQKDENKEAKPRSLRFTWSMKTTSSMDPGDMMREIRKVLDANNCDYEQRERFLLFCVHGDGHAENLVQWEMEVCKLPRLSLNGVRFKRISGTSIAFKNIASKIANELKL
How it was run: as §1

[6] = target: T6, MEKK1 (Homo sapiens, UniProt Q13233)
T6 construct: purchased Reaction Biology Corp
How it was run: as §1

[7] = target: T7, SIK2 (Homo sapiens, UniProt Q9H0K1)
T7 construct: purchased Reaction Biology Corp
T7 sequence (Q9H0K1 whole entry): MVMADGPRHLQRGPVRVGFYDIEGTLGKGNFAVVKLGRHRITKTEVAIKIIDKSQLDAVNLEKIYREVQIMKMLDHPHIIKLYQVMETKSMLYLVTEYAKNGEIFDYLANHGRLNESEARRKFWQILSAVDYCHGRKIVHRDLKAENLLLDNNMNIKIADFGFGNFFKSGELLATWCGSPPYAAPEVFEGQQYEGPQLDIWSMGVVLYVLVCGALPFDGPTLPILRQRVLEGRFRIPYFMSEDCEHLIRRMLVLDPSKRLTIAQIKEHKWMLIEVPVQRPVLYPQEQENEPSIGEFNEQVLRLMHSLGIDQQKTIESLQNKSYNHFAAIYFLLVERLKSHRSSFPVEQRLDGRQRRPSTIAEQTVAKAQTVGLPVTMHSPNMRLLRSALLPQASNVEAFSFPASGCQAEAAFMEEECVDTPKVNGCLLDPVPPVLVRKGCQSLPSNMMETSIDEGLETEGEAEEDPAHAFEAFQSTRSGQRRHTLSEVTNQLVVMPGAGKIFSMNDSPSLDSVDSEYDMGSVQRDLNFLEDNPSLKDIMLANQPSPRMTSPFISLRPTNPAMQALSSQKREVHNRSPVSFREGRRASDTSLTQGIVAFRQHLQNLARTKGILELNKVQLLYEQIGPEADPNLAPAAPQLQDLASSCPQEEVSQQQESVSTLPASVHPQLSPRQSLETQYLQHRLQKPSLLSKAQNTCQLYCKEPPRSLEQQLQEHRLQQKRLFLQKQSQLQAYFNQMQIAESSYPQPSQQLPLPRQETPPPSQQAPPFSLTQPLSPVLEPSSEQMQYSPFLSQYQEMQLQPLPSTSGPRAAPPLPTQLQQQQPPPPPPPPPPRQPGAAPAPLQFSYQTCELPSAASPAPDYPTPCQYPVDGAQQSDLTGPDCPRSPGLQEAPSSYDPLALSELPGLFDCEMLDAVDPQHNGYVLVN
How it was run: as §1

[8] = target: T8, PKN1/PRK1 (Homo sapiens, UniProt Q16512)
T8 construct: purchased Reaction Biology Corp
T8 sequence (Q16512 whole entry): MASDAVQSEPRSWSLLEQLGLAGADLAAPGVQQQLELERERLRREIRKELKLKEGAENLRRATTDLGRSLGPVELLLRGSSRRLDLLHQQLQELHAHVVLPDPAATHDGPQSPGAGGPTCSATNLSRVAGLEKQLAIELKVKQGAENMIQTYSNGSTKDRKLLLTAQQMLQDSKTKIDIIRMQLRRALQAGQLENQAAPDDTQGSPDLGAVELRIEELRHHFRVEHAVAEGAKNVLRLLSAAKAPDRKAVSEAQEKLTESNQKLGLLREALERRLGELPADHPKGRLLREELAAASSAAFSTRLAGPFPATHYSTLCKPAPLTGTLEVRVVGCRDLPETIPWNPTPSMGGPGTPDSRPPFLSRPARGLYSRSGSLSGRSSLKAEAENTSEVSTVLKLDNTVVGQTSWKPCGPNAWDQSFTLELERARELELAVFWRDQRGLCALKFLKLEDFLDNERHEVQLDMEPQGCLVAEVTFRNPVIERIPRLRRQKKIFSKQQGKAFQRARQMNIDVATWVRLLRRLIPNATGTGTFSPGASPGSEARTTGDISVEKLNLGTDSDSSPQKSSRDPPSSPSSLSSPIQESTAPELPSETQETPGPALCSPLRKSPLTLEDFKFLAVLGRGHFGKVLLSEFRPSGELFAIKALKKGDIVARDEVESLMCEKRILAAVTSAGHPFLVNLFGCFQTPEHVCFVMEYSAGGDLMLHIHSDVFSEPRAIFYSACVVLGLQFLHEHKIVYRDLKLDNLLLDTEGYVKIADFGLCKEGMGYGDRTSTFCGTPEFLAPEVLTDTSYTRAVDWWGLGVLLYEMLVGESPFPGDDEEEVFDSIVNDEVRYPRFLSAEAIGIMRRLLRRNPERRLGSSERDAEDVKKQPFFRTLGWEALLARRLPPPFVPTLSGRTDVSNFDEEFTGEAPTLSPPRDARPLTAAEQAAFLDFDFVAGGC
How it was run: as §1

[9] = target: T9, LYN B (Homo sapiens, UniProt P07948)
T9 construct: purchased Reaction Biology Corp
T9 sequence (P07948 1-491 isoform P07948-2): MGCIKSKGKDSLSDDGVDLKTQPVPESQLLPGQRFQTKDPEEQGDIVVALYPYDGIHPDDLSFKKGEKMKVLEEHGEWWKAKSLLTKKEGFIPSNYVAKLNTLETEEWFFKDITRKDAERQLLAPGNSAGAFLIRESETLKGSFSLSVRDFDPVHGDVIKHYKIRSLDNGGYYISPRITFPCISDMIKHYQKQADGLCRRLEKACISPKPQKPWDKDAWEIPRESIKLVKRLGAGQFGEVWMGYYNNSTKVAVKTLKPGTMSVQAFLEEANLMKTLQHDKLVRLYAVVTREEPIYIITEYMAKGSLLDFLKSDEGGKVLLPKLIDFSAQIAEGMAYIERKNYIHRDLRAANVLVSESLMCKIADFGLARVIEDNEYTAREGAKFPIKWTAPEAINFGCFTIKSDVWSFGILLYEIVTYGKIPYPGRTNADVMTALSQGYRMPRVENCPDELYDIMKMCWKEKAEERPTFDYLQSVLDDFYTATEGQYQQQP
How it was run: as §1

[10] = target: T10, CDK5/p25 (Homo sapiens, UniProt Q00535)
T10 construct: purchased Reaction Biology Corp
T10 sequence (Q00535 whole entry): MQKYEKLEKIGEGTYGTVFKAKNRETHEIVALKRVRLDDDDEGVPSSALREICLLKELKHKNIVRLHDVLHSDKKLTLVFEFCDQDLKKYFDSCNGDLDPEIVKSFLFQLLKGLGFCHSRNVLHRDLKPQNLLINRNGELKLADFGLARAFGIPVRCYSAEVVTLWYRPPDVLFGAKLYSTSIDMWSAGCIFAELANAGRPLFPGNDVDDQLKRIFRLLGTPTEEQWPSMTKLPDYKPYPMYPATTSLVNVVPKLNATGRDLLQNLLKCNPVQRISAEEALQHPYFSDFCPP
T10 sequence (Q15078 99-307 partner limits assumed): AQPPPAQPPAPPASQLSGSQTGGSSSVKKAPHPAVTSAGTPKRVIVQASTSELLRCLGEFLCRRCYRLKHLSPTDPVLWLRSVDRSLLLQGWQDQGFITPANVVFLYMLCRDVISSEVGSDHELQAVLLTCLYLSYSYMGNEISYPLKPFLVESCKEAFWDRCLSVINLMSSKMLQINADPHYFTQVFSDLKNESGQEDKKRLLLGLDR
How it was run: as §1

[11] = read-out: % Enzyme Activity (relative to DMSO controls) AVG
[12] = read-out: % Enzyme Activity (relative to DMSO controls) Data 1
[13] = read-out: % Enzyme Activity (relative to DMSO controls) Data 2

In the case of `CC(C)(C)C(=O)N1N=CC[C@H]1c1ccccc1` [GSK′963], the remaining activity at 10 µM [1, 11] is reported as 104%, the remaining activity at 10 µM [1, 12] is reported as 109% and the remaining activity at 10 µM [1, 13] is reported as 98.7%. It also gave a remaining activity at 10 µM [2, 11] of 99.8%, a remaining activity at 10 µM [2, 12] of 98.2% and a remaining activity at 10 µM [2, 13] of 101%. It also gave a remaining activity at 10 µM [3, 11] of 102%, a remaining activity at 10 µM [3, 12] of 95.2% and a remaining activity at 10 µM [3, 13] of 108%. The remaining activity at 10 µM [4, 11] was 103%, the remaining activity at 10 µM [4, 12] was 103% and the remaining activity at 10 µM [4, 13] was 103%. It also gave a remaining activity at 10 µM [5, 11] of 100%, a remaining activity at 10 µM [5, 12] of 102% and a remaining activity at 10 µM [5, 13] of 98.3%. For the same molecule, the remaining activity at 10 µM [6, 11] was 97.3%, the remaining activity at 10 µM [6, 12] was 101% and the remaining activity at 10 µM [6, 13] was 94%. For the same molecule, the remaining activity at 10 µM [7, 11] was 96.7%, the remaining activity at 10 µM [7, 12] was 94.8% and the remaining activity at 10 µM [7, 13] was 98.6%. It also gave a remaining activity at 10 µM [8, 11] of 103%, a remaining activity at 10 µM [8, 12] of 104% and a remaining activity at 10 µM [8, 13] of 102%. The remaining activity at 10 µM [9, 11] was 99.7%, the remaining activity at 10 µM [9, 12] was 103% and the remaining activity at 10 µM [9, 13] was 96%. It also gave a remaining activity at 10 µM [10, 11] of 97%, a remaining activity at 10 µM [10, 12] of 98.1% and a remaining activity at 10 µM [10, 13] of 95.8%.
